Experiments:
[1] = system: A549; test: MTT antiproliferative assay, A549; assay type: cell-based, human
Procedure: Cell viability was measured according to the previously published work [42].

[2] = system: MCF-7; test: MTT antiproliferative assay, MCF-7; assay type: cell-based, human
Procedure: (§1) Compounds 2a–g were tested for their growth inhibitory effectiveness against MCF-7, A-549, and SKOV3 cell lines by means of MTT assay, with doxorubicin used as an anticancer standard drug. […] Remarkably, we note the high antiproliferative activity of 2c and 2d, only towards SKOV3.
(§2) The Roswell Park Memorial Institute medium (RPMI 1640, Gibco, Grand Island, NY, USA) was used to culture the following cancer cell lines including MCF-7, A549, and SKOV3. Cells were grown in FBS (10%) and 100 units mL PS (penicillin/streptomycin) and were supplied to the same medium under standard cell conditions in an incubator (5% of CO2, at 37 °C).
(§3) Cell viability was measured according to the previously published work.

[3] = system: SKOV-3; test: MTT antiproliferative assay, SKOV3; assay type: cell-based, human
Procedure: as §1, §2, §3

[4] = system: SKOV3; test: Flow cytometric cell cycle analysis (PI), SKOV3; assay type: cell-based, human; settings: for cell cycle arrest phase: SKOV3; for (%) of cells in G0/G1 / (%) of cells in S / decrease in the G2/M phase vs control, factor: SKOV3, 48 h at IC50
Procedure: (§4) Based on the antiproliferative activity data shown above, a flow cytometry analysis was performed to identify the cell cycle arrest induced by the selected compounds (2f and 2g) in the three cell lines, for 48 h at their respective IC50 concentrations (Figure 4). The cell cycle (G1, S, and G2) was analyzed after staining the DNA with propidium iodide (PI). […] Towards SKOV3 cell lines, the population of cells in the G0/G1 phase was not affected for 2f (31.4 ± 1.2 vs. 30.8 ± 1.5) and increased for 2g (31.4 ± 1.2 vs. 44.5 ± 0.6). Moreover, in the S phase, it was increased for 2f (43.1 ± 0.6vs. 59.5 ± 0.2) and not affected for 2g (43.1 ± 0.6 vs. 44.8 ± 1.6), however, it decreased in the G2/M phase for both 2f and 2g by a factor of 2.83 and 2.44, respectively.
(§5) The effect of selected compounds on cell cycle phase distribution was determined by flow cytometry using the same protocol described elsewhere.

[5] = biological target: EGFR tyrosine kinase (Homo sapiens, UniProt P00533); test: EGFR tyrosine kinase inhibition; assay type: biochemical; settings: enzymatic inhibition
EGFR tyrosine kinase, sequence (P00533 25-1210): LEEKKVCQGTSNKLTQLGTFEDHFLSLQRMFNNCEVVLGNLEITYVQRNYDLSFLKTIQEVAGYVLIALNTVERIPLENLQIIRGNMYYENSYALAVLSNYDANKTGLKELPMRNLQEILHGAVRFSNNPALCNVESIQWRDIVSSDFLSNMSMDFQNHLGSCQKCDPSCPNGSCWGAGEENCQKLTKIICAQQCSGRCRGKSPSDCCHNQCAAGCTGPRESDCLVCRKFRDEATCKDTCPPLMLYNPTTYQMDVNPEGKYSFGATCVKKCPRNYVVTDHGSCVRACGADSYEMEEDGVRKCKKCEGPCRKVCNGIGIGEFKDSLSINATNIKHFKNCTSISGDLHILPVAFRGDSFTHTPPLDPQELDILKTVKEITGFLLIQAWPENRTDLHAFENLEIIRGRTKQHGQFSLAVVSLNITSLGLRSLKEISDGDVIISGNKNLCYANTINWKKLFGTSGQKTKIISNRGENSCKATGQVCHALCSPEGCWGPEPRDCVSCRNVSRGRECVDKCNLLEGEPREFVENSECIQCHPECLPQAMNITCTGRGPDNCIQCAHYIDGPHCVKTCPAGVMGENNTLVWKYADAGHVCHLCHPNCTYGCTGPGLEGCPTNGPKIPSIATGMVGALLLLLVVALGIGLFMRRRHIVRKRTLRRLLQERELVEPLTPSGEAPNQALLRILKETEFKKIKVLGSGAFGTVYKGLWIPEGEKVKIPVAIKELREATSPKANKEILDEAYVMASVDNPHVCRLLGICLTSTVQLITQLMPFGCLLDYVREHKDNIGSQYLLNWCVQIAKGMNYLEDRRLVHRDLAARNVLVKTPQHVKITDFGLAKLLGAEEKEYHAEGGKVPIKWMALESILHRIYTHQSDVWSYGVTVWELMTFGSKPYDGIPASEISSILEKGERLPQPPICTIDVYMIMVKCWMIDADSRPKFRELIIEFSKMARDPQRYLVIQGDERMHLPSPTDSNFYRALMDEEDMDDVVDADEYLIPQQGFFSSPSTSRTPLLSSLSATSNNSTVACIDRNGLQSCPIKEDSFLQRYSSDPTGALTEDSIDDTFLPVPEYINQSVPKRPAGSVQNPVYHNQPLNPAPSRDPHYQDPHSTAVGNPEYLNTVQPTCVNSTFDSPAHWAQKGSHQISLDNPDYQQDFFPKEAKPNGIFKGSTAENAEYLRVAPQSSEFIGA
Procedure: The EGFR activity was determined based on the method reported by E.A.A. El-Meguid et al. [43].

[6] = system: SKOV3; test: Cellular apoptosis assay (flow cytometry), SKOV3; assay type: cell-based, human; settings: SKOV3, at IC50, 48 h
[7] = system: MCF-7; test: Cellular apoptosis assay (flow cytometry), MCF-7; assay type: cell-based, human; settings: MCF-7, at IC50, 48 h
[8] = system: A549; test: Flow cytometric cell cycle analysis (PI), A549; assay type: cell-based, human; settings: for cell cycle arrest phase: A549
Procedure: The effect of selected compounds on cell cycle phase distribution was determined by flow cytometry using the same protocol described elsewhere [44].

[9] = system: A549; test: Cellular apoptosis assay (flow cytometry), A549; assay type: cell-based, human; settings: A549, at IC50, 48 h
[10] = system: MCF-7; test: Flow cytometric cell cycle analysis (PI), MCF-7; assay type: cell-based, human; settings: for cell cycle arrest phase: MCF-7; for (%) of cells in G0/G1 / (%) of cells in S: MCF-7, 48 h at IC50
Procedure: as §4, §5

[11] = Homo sapiens, SK-OV-3, MTT assay

Row | Compound | IC50 ([1]; Homo sapiens, A549, MTT assay) [µM] | IC50 ([2]; Homo sapiens, MCF7, MTT assay) [µM] | IC50 [3, 11] [µM] | (%) of cells in G0/G1 [4] [%] | (%) of cells in S [4] [%] | Early apoptosis [6] [%] | Intact cells [6] [%] | Late apoptosis [6] [%] | Necrosis [6] [%] | Total death (cellular apoptosis) [6] [%] | Early apoptosis [7] [%] | Intact cells [7] [%] | Late apoptosis [7] [%] | Necrosis [7] [%] | Total death (cellular apoptosis) [7] [%] | (%) of cells in G0/G1 ([8]; A549, 48 h at IC50) [%] | IC50 ([1]; MTT assay) [µM] | IC50 ([2]; MTT assay) [µM] | Early apoptosis [9] [%] | Intact cells [9] [%] | further results
1 | COc1cc(C[C@@H]2C[C@H]3C(=O)N(C)C4(C[C@H](C)CC[C@H]4C(C)C)N3O2)ccc1O (stereo partly drawn) [2a, (2S,2′R,3a′S,5R)-2′-(4-hydroxy-3-methoxybenzyl)-2-isopropyl-5,5′-dimethyldihydro-2′H-spiro[cyclohexane-1,6′-imidazo [1,5-b]isoxazol]-4′(5′H)-one] | 18.1 ± 0.7 | 21.3 ± 0.5 | 14.5 ± 0.9 | – | – | – | – | – | – | – | – | – | – | – | – | – | – | – | – | – | –
2 | Cc1cccc(C[C@@H]2C[C@H]3C(=O)N(C)C4(C[C@H](C)CC[C@H]4C(C)C)N3O2)c1O (stereo partly drawn) [2c, (2S,2′R,3a′S,5R)-2′-(2-hydroxy-3-methylbenzyl)-2-isopropyl-5,5′-dimethyldihydro-2′H-spiro[cyclohexane-1,6′-imidazo [1,5-b]isoxazol]-4′(5′H)-one] | 35.4 ± 0.14 | 7.2 ± 0.2 | 19.4 ± 1.4 | – | – | – | – | – | – | – | – | – | – | – | – | – | – | – | – | – | –
3 | COc1ccc(C[C@@H]2C[C@H]3C(=O)N(C)C4(C[C@H](C)CC[C@H]4C(C)C)N3O2)cc1OC (stereo partly drawn) [2d, (2S,2′R,3a′S,5R)-2′-(3,4-dimethoxybenzyl)-2-isopropyl-5,5′-dimethyldihydro-2′H-spiro[cyclohexane-1,6′-imidazo [1,5-b]isoxazol]-4′(5′H)-one] | 25 ± 2.5 | 8.7 ± 0.5 | 27.6 ± 2.2 | – | – | – | – | – | – | – | – | – | – | – | – | – | – | – | – | – | –
4 | COc1cc(C[C@@H]2C[C@H]3C(=O)N(C)[C@@]4(C[C@H](C)CC[C@H]4C(C)C)N3O2)ccc1OC(C)=O [2e, 4-(((1S,2S,2′R,3a′S,5R)-2-Isopropyl-5,5′-dimethyl-4′-oxotetrahydro-2′H-spiro[cyclohexane-1,6′-imidazo [1,5-b]isoxazol]-2′-yl)methyl)-2-methoxyphenyl acetate] | 53.5 ± 1.1 | 66.8 ± 2.7 | 27.9 ± 1.9 | – | – | – | – | – | – | – | – | – | – | – | – | – | – | – | – | – | –
5 | CC(C)[C@@H]1CC[C@@H](C)C[C@@]12N(C)C(=O)[C@@H]1C[C@@H](Cc3ccccc3O)ON12 [2f, (1S,2S,2′R,3a′S,5R)-2′-(2-Hydroxybenzyl)-2-isopropyl-5,5′-dimethyldihydro-2′H-spiro[cyclohexane-1,6′-imidazo [1,5-b]isoxazol]-4′(5′H)-one] | 9.7 ± 0.7 | 9.7 ± 1.3 | – | 31.4 ± 1.2 | 59.5 ± 0.2 | 17.9 | 8.78 | 67.16 | 6.16 | 91.22 | 70.48 | 13.11 | 15.78 | 0.63 | 86.89 | 23.1 ± 0.8 | 12.1 ± 1.1 | 17.7 ± 1 | 16.72 | 7.39 | cell cycle arrest phase [4]: S phase; decrease in the G2/M phase vs control, factor [4]: 2.83; IC50 [5]: 0.298 ± 0.007 µM; cell cycle arrest phase [8]: G2/M phase; Late apoptosis [9]: 70.5%; Necrosis [9]: 5.39%; Total death (cellular apoptosis) [9]: 92.61%; cell cycle arrest phase [10]: S phase; (%) of cells in G0/G1 [10]: 19 ± 1.2%; (%) of cells in S [10]: 63.3 ± 0.6%
6 | COC(=O)c1cc(C)cc(C[C@@H]2C[C@H]3C(=O)N(C)[C@@]4(C[C@H](C)CC[C@H]4C(C)C)N3O2)c1O [2g, Methyl 2-hydroxy-3-(((1S,2S,2′R,3a′S,5R)-2-isopropyl-5,5′-dimethyl-4′-oxotetrahydro-2′H-spiro[cyclohexane-1,6′-imidazo[1,5-b]isoxazol]-2′-yl)methyl)-5-methylbenzoate] | 12.1 ± 1.1 | 17.7 ± 1 | – | 44.5 ± 0.6 | 44.8 ± 1.6 | 12.92 | 3.34 | 81.05 | 2.68 | 96.65 | 46.49 | 24.83 | 20.51 | 8.17 | 75.17 | 49.3 ± 0.7 | 9.7 ± 0.7 | 9.7 ± 1.3 | 60.72 | 21.24 | cell cycle arrest phase [4]: G0/G1 phase; decrease in the G2/M phase vs control, factor [4]: 2.44; IC50 [5]: 0.484 ± 0.01 µM; cell cycle arrest phase [8]: G0/G1 phase; (%) of cells in S ([8]; A549, 48 h at IC50): 40.2 ± 0.3%; decrease of population in the G2/M phase vs control ([8]; A549, 48 h at IC50): 2.37 folds; decrease of population in the S phase vs control ([8]; A549, 48 h at IC50): 1.08 folds; Late apoptosis [9]: 17.69%; Necrosis [9]: 0.35%; Total death (cellular apoptosis) [9]: 78.76%; cell cycle arrest phase [10]: G0/G1 phase; (%) of cells in G0/G1 [10]: 53.7 ± 0.6%; (%) of cells in S [10]: 36.3 ± 0.6%
7 | COc1cccc2c1C(=O)c1c(O)c3c(c(O)c1C2=O)C[C@@](O)(C(=O)CO)C[C@@H]3O[C@H]1C[C@H](N)[C@H](O)[C@H](C)O1 [Doxorubicin, doxorubicin, reference compound] | 4.2 ± 0.24 | 2.8 ± 0.4 | 4.2 ± 0.013 | 16.7 ± 1 | 30.7 ± 0.6 | 20.56 | 3.25 | 73.08 | 3.11 | 96.75 | 17.12 | 7.94 | 68.7 | 6.24 | 92.06 | 16.12 ± 0.54 | – | – | 9.38 | 1.16 | (%) of cells in S ([8]; A549, 48 h at IC50): 34.01 ± 0.24%; Late apoptosis [9]: 88.01%; Necrosis [9]: 1.45%; Total death (cellular apoptosis) [9]: 98.84%; (%) of cells in G0/G1 [10]: 18.4 ± 0.9%; (%) of cells in S [10]: 34 ± 0.6%
8 | (2R,2′R,3a′S,5R)-2′-(2-acetyl-6-hydroxybenzyl)-2,5,5′-trimethyldihydro-2′H-spiro[cyclohexane-1,6′-imidazo [1,5-b]isoxazol]-4′(5′H)-one [2b] | – | – | – | – | – | – | – | – | – | – | – | – | – | – | – | – | 48.7 ± 0.9 | 22.2 ± 0.3 | – | – | IC50 ([3]; MTT assay): 18.3 ± 0.9 µM

— publication PMC10384175, “In Vitro and In Silico Evaluation of Antiproliferative Activity of New Isoxazolidine Derivatives Targeting EGFR: Design, Synthesis, Cell Cycle Analysis, and Apoptotic Inducers” (Pharmaceuticals, 2023)
